Source: patent US9913816B2, “Method for applying metformin and sodium butyrate in K-ras mutation cancer treatment” (Johnpro Biotech Inc., priority 2013, dated 2018)

Test system: HCT116 cells
Details: 72 hours; final concentration 0.75 mM sodium butyrate, 2 mM metformin, alone or both in combination; FIG. 1
Experimental: The human colon cancer cell HCT116 (cell line with K-ras mutation) is cultured in the McCoy's 5A with 10% fetal bovine serum. When the HCT116 cells are cultured to the appropriate number, then the adherent HCT116 cells are suspended, and 2.5×10^5 HCT116 cells per well are seeded in a 6-wells dish. After incubated for 12 hours, sodium butyrate with a final concentration of 0.75 mM, metformin with a final concentration of 2 mM, and the pharmaceutical composition with final concentration of […] are respectively added to the 6-wells dish as above mentioned.
In this embodiment, the final concentration as mentioned means the concentration of respective substances after added in the medium for cell culture, and therefore the medium respectively contains 0.75 mM sodium butyrate, 2 mM metformin, or 0.75 mM sodium butyrate and 2 mM metformin.
After respectably added the above compounds to HCT116 cells, the 6-well dish is incubated in an incubator of 37° C. for 72 hours. After that, the medium and compounds in each well are sequentially removed, and each well is washed by Phosphate Buffered Saline (PBS), then the HCT116 cells are harvested, by treating trypsin-EDTA, for apoptosis analysis.
The apoptosis analysis is based on the Annexin V apoptosis detection kit (BD Pharmingen) for analysis the exposure of phosphatidylserine, and the protocol follows the accompanying manual. In brief, the treated HCT116 cells are washed three times with PBS, and then immediately stained with Annexin V/Propidium Iodide (PI). 1% fetal bovine serum albumin (BSA) is first added to the treated cells. After subsequently added 222.5 μl of binding buffer, 10 μl of PI and 2.5 μl of Annexin V-FITC are directly then added to stain the cells, followed by immediate incubation for 10 minutes at low temperature in the dark. The percentage of the apoptosis is calculated by the flow cytometry and FACSCalibur, the analysis software thereof.

Structure (SMILES) | apoptotic rate of HCT116 cells | improvement of apoptotic rate compared to the control group
CN(C)C(=N)N=C(N)N [metformin] | about 20% | about 15%
CCCC(=O)[O-].[Na+] [sodium butyrate] | about 20% | about 15%
